Read-outs that look alike come from different tables or passages of the source. Where no end group is shown, it is not given here.
What was measured:
[1] = cited from earlier work
[2] = ref Groer et al., 2007; cited from earlier work
δ-ORs = conditions: ref Chiang et al., 2016; Molinari et al., 2010; cited from earlier work
δ-OR = δ-OR (Homo sapiens, UniProt P41143); assay: Radioligand binding assay: displacement of [^3H]DPDPE
humanδ-OR / β-arrestin 2 = humanδ-OR / β-arrestin 2 (Homo sapiens, UniProt P41143); assay: β-arrestin 2 recruitment, CHO-humanδ-OR PathHunter cells; assay type: cell-based; conditions: for efficacy α β-arrestin2: normalized to leu-enkephalin, mean ± SEM
[3] = system: δ opioid receptors (δ-ORs); conditions: synthetic analog of rubiscolin-6; ref Yang et al., 2003b; cited from earlier work

Sequence of humanδ-OR / β-arrestin 2 (P41143 whole entry): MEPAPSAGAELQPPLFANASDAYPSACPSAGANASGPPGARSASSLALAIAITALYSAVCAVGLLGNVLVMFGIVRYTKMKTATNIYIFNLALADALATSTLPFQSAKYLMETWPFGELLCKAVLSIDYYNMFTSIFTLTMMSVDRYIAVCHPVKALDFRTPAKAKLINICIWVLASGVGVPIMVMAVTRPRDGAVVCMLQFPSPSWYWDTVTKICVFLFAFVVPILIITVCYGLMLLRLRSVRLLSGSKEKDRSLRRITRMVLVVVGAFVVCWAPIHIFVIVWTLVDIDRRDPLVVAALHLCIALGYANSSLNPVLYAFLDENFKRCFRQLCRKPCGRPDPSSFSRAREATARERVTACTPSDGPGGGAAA
Sequence of δ-OR (P41143 whole entry): as above

Q: With `C[C@@H](Cc1ccsc1)NC(=O)NC[C@H](Cc1ccc(O)cc1)N(C)C` [PZM21] as the compound, how does the side effect profile ([1]; ref Manglik et al., 2016) read?
A: appear to possess a reduced side effect profile

Q: Which side effect profile ([1]; ref DeWire et al., 2013) does the source give for `COc1ccsc1CNCC[C@@]1(c2ccccn2)CCOC2(CCCC2)C1` [TRV130] here?
A: appear to possess a reduced side effect profile

Q: Which “G protein bias, in words” value [2] does the source give for `COC(=O)[C@@H]1C[C@H](OC(=O)c2ccccc2)C(=O)[C@H]2[C@@]1(C)CC[C@H]1C(=O)O[C@H](c3ccoc3)C[C@]21C` [herkinorin] here?
A: G protein-biased

Q: Which “β-arrestin recruitment, in words” value (δ-ORs) does the source give for DADLE here?
A: strongly recruit β-arrestin

Q: Which “β-arrestin recruitment, in words” value (δ-ORs) does the source give for DPDPE here?
A: strongly recruit β-arrestin

Q: For YPLDL [Rubiscolin-5], which Ki (δ-OR) is on record?
A: 3.16 µM

Q: And the EC50 (humanδ-OR / β-arrestin 2)?
A: 79.4 µM

Q: What about the “efficacy α β-arrestin2” value (humanδ-OR / β-arrestin 2) of the same compound?
A: 15±4

Q: Which results are given for YPLDLF [Rubiscolin-6]?
A: Ki (δ-OR): 1 µM; EC50 (humanδ-OR / β-arrestin 2): 7.94 µM; efficacy α β-arrestin2 (humanδ-OR / β-arrestin 2): 20±3

Q: Which “potency and δ-OR selectivity, in words” value [3] does the source give for YPLDLV here?
A: more potent and δ-OR-selective

Source: publication PMC6421079 (European neuropsychopharmacology : the journal of the …, 2018)
